Source: patent publication US20210038579A1, “Treatment Of Patients With Classic Fabry Disease” (Amicus Therapeutics, Inc., priority 2018, published 2021)
Changes are numbered by the printed parent chain.

How the values were obtained:
Assay in all cases: HEK assay: α-Gal A activity in HEK-293 cell lysate with migalastat
Assay type in all cases: cell-based
[1] = biological target: T1, α-Gal A mutant form p.Gly85Asp (c.254 G > A) (Homo sapiens, UniProt P06280, G85D)
T1 construct: expressed in transfected cells; host or cells: HEK-293
T1 sequence (P06280 32-429 G85D): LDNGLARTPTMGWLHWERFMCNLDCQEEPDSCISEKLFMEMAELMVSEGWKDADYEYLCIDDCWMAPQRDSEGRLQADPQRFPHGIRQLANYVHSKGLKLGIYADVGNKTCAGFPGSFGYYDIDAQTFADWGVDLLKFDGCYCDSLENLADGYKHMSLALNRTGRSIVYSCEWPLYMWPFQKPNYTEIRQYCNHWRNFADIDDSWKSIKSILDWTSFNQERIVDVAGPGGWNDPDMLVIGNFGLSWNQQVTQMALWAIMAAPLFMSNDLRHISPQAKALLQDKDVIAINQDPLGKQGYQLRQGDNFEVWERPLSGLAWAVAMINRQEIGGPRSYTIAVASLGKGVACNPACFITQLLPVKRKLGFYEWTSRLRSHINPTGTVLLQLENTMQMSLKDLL
Procedure: (§1) Such mutations are also referred to herein as “HEK assay amenable” mutations.
(§2) In this assay, cDNA constructs are created. The corresponding α-Gal A mutant forms are transiently expressed in HEK-293 cells. Cells are then incubated±migalastat (17 nM to 1 mM) for 4 to 5 days. After, α-Gal A levels are measured in cell lysates using a synthetic fluorogenic substrate (4-MU-α-Gal) or by western blot. This has been done for known disease-causing missense or small in-frame insertion/deletion mutations.

[2] = biological target: T2, α-Gal A mutant form p.Gly144Val (c.431 G > T) (Homo sapiens, UniProt P06280, G144V)
T2 construct: expressed in transfected cells; host or cells: HEK-293
T2 sequence (P06280 32-429 G144V): T1 sequence (P06280 32-429 G85D) with D54G, G113V
Procedure: as §1, §2

[3] = biological target: T3, α-Gal A mutant form p.Leu36Trp (c.107 T > G) (Homo sapiens, UniProt P06280, L36W)
T3 construct: expressed in transfected cells; host or cells: HEK-293
T3 sequence (P06280 32-429 L36W): T1 sequence (P06280 32-429 G85D) with L5W, D54G
Procedure: as §1, §2

[4] = biological target: T4, α-Gal A mutant form p.Phe 295Cys (c.884 T > G) (Homo sapiens, UniProt P06280, F295C)
T4 construct: expressed in transfected cells; host or cells: HEK-293
T4 sequence (P06280 32-429 F295C): T1 sequence (P06280 32-429 G85D) with D54G, F264C
Procedure: as §1, §2

[5] = biological target: T5, α-Gal A mutant form p.Pro293Thr (c.877 C > A) (Homo sapiens, UniProt P06280, P293T)
T5 construct: expressed in transfected cells; host or cells: HEK-293
T5 sequence (P06280 32-429 P293T): T1 sequence (P06280 32-429 G85D) with D54G, P262T
Procedure: as §1, §2

[6] = +10 μM migalastat, HEK-293 cell lysate, mean ± SEM, n = 20
[7] = HEK293, 10 μM migalastat minus baseline, read-out: Absolute increase at 10 μM (% WT)

OC[C@H]1NC[C@H](O)[C@@H](O)[C@H]1O [migalastat]
α-Gal A activity at 10 μM (fold over baseline) ([1]; 10 μM migalastat): 5.10 fold over baseline | +Migalastat α-Gal A activity [1, 6]: 4534 ± 135 nmol/mg/h | +Migalastat α-Gal A activity % WT [1, 6]: 14.3 ± 0.9 % WT | activation at 10 µM [1, 7]: 11.6% | α-Gal A activity at 10 μM (fold over baseline) ([2]; 10 μM migalastat): 11.58 fold over baseline | +Migalastat α-Gal A activity [2, 6]: 2924 ± 335 nmol/mg/h | +Migalastat α-Gal A activity % WT [2, 6]: 9.2 ± 1.2 % WT | activation at 10 µM [2, 7]: 8.4% | α-Gal A activity at 10 μM (fold over baseline) ([3]; 10 μM migalastat): 21.49 fold over baseline | +Migalastat α-Gal A activity [3, 6]: 5182 ± 463 nmol/mg/h | +Migalastat α-Gal A activity % WT [3, 6]: 16.6 ± 2.1 % WT | activation at 10 µM [3, 7]: 15.9% | α-Gal A activity at 10 μM (fold over baseline) ([4]; 10 μM migalastat): 4.22 fold over baseline | +Migalastat α-Gal A activity [4, 6]: 5051 ± 190 nmol/mg/h | +Migalastat α-Gal A activity % WT [4, 6]: 14.5 ± 0.6 % WT | activation at 10 µM [4, 7]: 11.1% | α-Gal A activity at 10 μM (fold over baseline) ([5]; 10 μM migalastat): 19.60 fold over baseline | +Migalastat α-Gal A activity [5, 6]: 4488 ± 327 nmol/mg/h | +Migalastat α-Gal A activity % WT [5, 6]: 13.3 ± 1.1 % WT | activation at 10 µM [5, 7]: 12.7%
